Where a name gives a salt, the structure may show the parent alone.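 A five-concentration, 48-hour dose response in 96-well plates underlies each endpoint, interpolated linearly between surrounding concentrations. The concentration for 50% growth inhibition is given as GI50.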 Activity calls are given as the source filed them. Rule as the data show it: active = GI50 up to about 1.1 µM and inactive = higher.
Key:
Experiment in all cases: growth of human tumour cells (NCI), 48 h
DMS-114 = tested on: DMS-114
XF498 = tested on: XF498
DMS-273 = tested on: DMS-273
M19-MEL = tested on: M19-MEL
DLD-1 = tested on: DLD-1
LXFL 529 = tested on: LXFL 529
HOP-18 = tested on: HOP-18
SNB-78 = tested on: SNB-78
RXF 631 = tested on: RXF 631

## CSc1nc(Cl)c(Br)c(Sc2nc(N)nc3nc[nH]c23)n1
DMS-114
  GI50: 4.74 µM (inactive)
XF498
  GI50: 15.8 µM (inactive)
DMS-273
  GI50: 3.14 µM (inactive)
M19-MEL
  GI50: 7.45 µM (inactive)
DLD-1
  GI50: 11.1 µM (inactive)
LXFL 529
  GI50: 5.79 µM (inactive)

## O=C(/C=C/c1ccccc1Cl)c1ccc(Cl)c(Cl)c1
HOP-18
  GI50: 14.8 µM (inactive)
DMS-273
  GI50: 19.9 µM (inactive)
SNB-78
  GI50: 16.2 µM (inactive)
M19-MEL
  GI50: 16.3 µM (inactive)
DLD-1
  GI50: 15.8 µM (inactive)
LXFL 529
  GI50: 16.1 µM (inactive)

## Nc1ccc(C(=O)CC2(O)C(=O)Nc3ccccc32)cc1 (stereo not given)
DMS-114
  GI50: > 100 µM (inactive)
XF498
  GI50: > 100 µM (inactive)
DMS-273
  GI50: > 100 µM (inactive)
SNB-78
  GI50: > 100 µM (inactive)
M19-MEL
  GI50: > 100 µM (inactive)
DLD-1
  GI50: > 100 µM (inactive)
LXFL 529
  GI50: > 100 µM (inactive)

## COc1ccc(C(C#N)NNC(=O)c2ccccc2O)cc1OC (stereo not given)
DMS-114
  GI50: 0.573 µM (active)
HOP-18
  GI50: 10 µM (inactive)
DMS-273
  GI50: 0.364 µM (active)
SNB-78
  GI50: 0.685 µM (active)
M19-MEL
  GI50: 6.92 µM (inactive)
DLD-1
  GI50: 0.9 µM (active)
LXFL 529
  GI50: 0.526 µM (active)

## COc1ccc2c(c1)CCC1C3(CCCC21C)OCCO3 (stereo not given)
RXF 631
  GI50: 23.9 µM (inactive)
HOP-18
  GI50: 23.1 µM (inactive)
DMS-273
  GI50: 17.5 µM (inactive)
SNB-78
  GI50: 19.4 µM (inactive)
M19-MEL
  GI50: 18.6 µM (inactive)
DLD-1
  GI50: 15.7 µM (inactive)
LXFL 529
  GI50: 18.2 µM (inactive)

## O=C(CC1(O)C(=O)Nc2c(Cl)cc(Cl)cc21)c1ccc(Br)cc1 (stereo not given)
RXF 631
  GI50: 12.4 µM (inactive)
DMS-114
  GI50: 20.6 µM (inactive)
HOP-18
  GI50: 15.7 µM (inactive)
DMS-273
  GI50: 13.5 µM (inactive)
SNB-78
  GI50: 19.1 µM (inactive)
M19-MEL
  GI50: 7.76 µM (inactive)
DLD-1
  GI50: 13.2 µM (inactive)
LXFL 529
  GI50: > 37.9 µM (inactive)

## Cc1[nH]c2ccccc2c1C(=O)CC1(O)C(=O)Nc2ccccc21 (stereo not given)
RXF 631
  GI50: > 100 µM (inactive)
DMS-273
  GI50: > 100 µM (inactive)
SNB-78
  GI50: 61 µM (inactive)
M19-MEL
  GI50: > 100 µM (inactive)
DLD-1
  GI50: > 100 µM (inactive)
LXFL 529
  GI50: > 100 µM (inactive)

## CC(=O)OCC(OC(C)=O)C(OC(C)=O)C(OC(C)=O)C(=O)CNn1c(-c2ccccc2Cl)nc2ccccc2c1=O (stereo not given)
DMS-114
  GI50: > 100 µM (inactive)
DMS-273
  GI50: > 100 µM (inactive)
SNB-78
  GI50: > 100 µM (inactive)
M19-MEL
  GI50: > 100 µM (inactive)
LXFL 529
  GI50: > 100 µM (inactive)

## CCOC(=O)C1=C(C)CC2C(=O)OC(=O)C2C1(C)C (stereo not given)
DMS-114
  GI50: > 100 µM (inactive)
HOP-18
  GI50: > 100 µM (inactive)
M19-MEL
  GI50: > 100 µM (inactive)
DLD-1
  GI50: > 100 µM (inactive)
LXFL 529
  GI50: > 100 µM (inactive)

## N#C/C(=C1\N=NC(N)=C(c2ccc(Cl)cc2)C1=O)c1ccc(Cl)cc1
DMS-114
  GI50: > 100 µM (inactive)
HOP-18
  GI50: > 100 µM (inactive)
XF498
  GI50: > 100 µM (inactive)
DMS-273
  GI50: > 100 µM (inactive)
SNB-78
  GI50: > 100 µM (inactive)
M19-MEL
  GI50: > 100 µM (inactive)
DLD-1
  GI50: > 100 µM (inactive)
LXFL 529
  GI50: > 100 µM (inactive)

## Cc1nc2c(n1CCO)C(=O)c1ccccc1C2=O
XF498
  GI50: 33 µM (inactive)
DMS-273
  GI50: 20 µM (inactive)
SNB-78
  GI50: 46.5 µM (inactive)
M19-MEL
  GI50: 2.57 µM (inactive)
DLD-1
  GI50: 38.2 µM (inactive)
LXFL 529
  GI50: 36.6 µM (inactive)

## CN(C)C(=S)/N=c1\ssc(=S)n1C1CCCCC1
RXF 631
  GI50: 19.5 µM (inactive)
DMS-114
  GI50: 13.9 µM (inactive)
HOP-18
  GI50: > 100 µM (inactive)
XF498
  GI50: 19.4 µM (inactive)
DMS-273
  GI50: 28.2 µM (inactive)
M19-MEL
  GI50: 18.7 µM (inactive)
DLD-1
  GI50: 21.5 µM (inactive)
LXFL 529
  GI50: 13.2 µM (inactive)

## Cc1ccc(NC(=O)CCC/C(CC(=O)c2ccc(Br)cc2)=N/NC(=O)CC#N)cc1
DMS-114
  GI50: > 100 µM (inactive)
SNB-78
  GI50: > 100 µM (inactive)
M19-MEL
  GI50: > 100 µM (inactive)
DLD-1
  GI50: > 100 µM (inactive)
LXFL 529
  GI50: > 100 µM (inactive)

## CCOC(=O)N1CCN(P(=O)(Nc2ccc3[nH]c(NC(=O)OC)nc3c2)Oc2ccccc2)CC1 (stereo not given)
DMS-114
  GI50: > 100 µM (inactive)
HOP-18
  GI50: 87.9 µM (inactive)
DMS-273
  GI50: > 100 µM (inactive)
SNB-78
  GI50: > 100 µM (inactive)
M19-MEL
  GI50: > 100 µM (inactive)
DLD-1
  GI50: > 100 µM (inactive)
LXFL 529
  GI50: > 100 µM (inactive)

## CNC(=O)NCCCCC(NC(C)=O)C(=O)NCc1ccccc1 (stereo not given)
RXF 631
  GI50: > 100 µM (inactive)
DMS-114
  GI50: > 100 µM (inactive)
XF498
  GI50: > 100 µM (inactive)
DMS-273
  GI50: > 100 µM (inactive)
SNB-78
  GI50: > 100 µM (inactive)
M19-MEL
  GI50: > 100 µM (inactive)
DLD-1
  GI50: > 100 µM (inactive)
LXFL 529
  GI50: > 100 µM (inactive)

## C[Si](C)(C)c1ccc(-c2sc(-c3ccc([Si](C)(C)C)s3)c3c2C[Si]2(C3)Cc3c(-c4ccc([Si](C)(C)C)s4)sc(-c4ccc([Si](C)(C)C)s4)c3C2)s1
RXF 631
  GI50: > 100 µM (inactive)
XF498
  GI50: > 100 µM (inactive)
DMS-273
  GI50: > 100 µM (inactive)
SNB-78
  GI50: > 100 µM (inactive)
M19-MEL
  GI50: > 100 µM (inactive)
DLD-1
  GI50: > 100 µM (inactive)
LXFL 529
  GI50: > 100 µM (inactive)

## COc1cc2c(cc1OC)C(C(CO)CO)N(CC(O)CCl)CC2 (stereo not given)
RXF 631
  GI50: > 100 µM (inactive)
XF498
  GI50: > 100 µM (inactive)
DMS-273
  GI50: > 100 µM (inactive)
SNB-78
  GI50: > 100 µM (inactive)
M19-MEL
  GI50: > 100 µM (inactive)
DLD-1
  GI50: > 100 µM (inactive)
LXFL 529
  GI50: > 100 µM (inactive)

## Cc1cccc2[s+]snc12
RXF 631
  GI50: 19.7 µM (inactive)
DMS-114
  GI50: > 58.5 µM (inactive)
HOP-18
  GI50: > 100 µM (inactive)
XF498
  GI50: > 100 µM (inactive)
DMS-273
  GI50: > 100 µM (inactive)
SNB-78
  GI50: > 100 µM (inactive)
M19-MEL
  GI50: > 60.3 µM (inactive)
DLD-1
  GI50: 26.7 µM (inactive)
LXFL 529
  GI50: 36.1 µM (inactive)

## CC(NC(C)(C)C)C(=O)c1cccc(Cl)c1 (stereo not given) [BUPROPION HYDROCHLORIDE]
RXF 631
  GI50: > 100 µM (inactive)
DMS-114
  GI50: > 100 µM (inactive)
XF498
  GI50: > 100 µM (inactive)
DMS-273
  GI50: > 100 µM (inactive)
M19-MEL
  GI50: > 100 µM (inactive)
DLD-1
  GI50: > 100 µM (inactive)
LXFL 529
  GI50: > 100 µM (inactive)

## CCOC(=O)CC(C)C1(C=O)CCCCC1=O (stereo not given)
RXF 631
  GI50: > 100 µM (inactive)
DMS-114
  GI50: 23 µM (inactive)
HOP-18
  GI50: > 100 µM (inactive)
XF498
  GI50: > 100 µM (inactive)
DMS-273
  GI50: 21.1 µM (inactive)
SNB-78
  GI50: > 100 µM (inactive)
M19-MEL
  GI50: > 100 µM (inactive)
DLD-1
  GI50: 56 µM (inactive)
LXFL 529
  GI50: > 100 µM (inactive)

## CC1CC2C(=O)NC(=O)C2c2[nH]c3ccccc3c21 (stereo not given)
DMS-114
  GI50: 96.2 µM (inactive)
XF498
  GI50: > 100 µM (inactive)
DMS-273
  GI50: > 100 µM (inactive)
SNB-78
  GI50: > 100 µM (inactive)
M19-MEL
  GI50: > 100 µM (inactive)
DLD-1
  GI50: > 100 µM (inactive)
LXFL 529
  GI50: > 100 µM (inactive)

## CC1CC2(CCC1OCc1ccccc1)OCCO2 (stereo not given)
DMS-114
  GI50: > 100 µM (inactive)
XF498
  GI50: > 100 µM (inactive)
DMS-273
  GI50: > 100 µM (inactive)
SNB-78
  GI50: > 100 µM (inactive)
M19-MEL
  GI50: > 100 µM (inactive)
DLD-1
  GI50: > 100 µM (inactive)
LXFL 529
  GI50: > 100 µM (inactive)

## COc1cc2c(cc1O)CCN[C@@]21CS[C@H]2c3c(OC(C)=O)c(C)c4c(c3C(COC1=O)N1C2C2c3c(cc(C)c(OC)c3O)CC([C@@H]1O)N2C)OCO4 (stereo not given in full)
RXF 631
  GI50: < 1e-06 µM (active)
DMS-114
  GI50: < 1e-06 µM (active)
XF498
  GI50: < 1e-06 µM (active)
DMS-273
  GI50: < 1e-06 µM (active)
M19-MEL
  GI50: < 1e-06 µM (active)
DLD-1
  GI50: < 1e-06 µM (active)
LXFL 529
  GI50: < 1e-06 µM (active)

## Nn1c(-c2cccc(Cl)c2)nc2ccccc2c1=O
RXF 631
  GI50: > 100 µM (inactive)
DMS-114
  GI50: > 100 µM (inactive)
HOP-18
  GI50: 68.5 µM (inactive)
XF498
  GI50: 23.5 µM (inactive)
DMS-273
  GI50: > 100 µM (inactive)
SNB-78
  GI50: > 100 µM (inactive)
DLD-1
  GI50: > 100 µM (inactive)
LXFL 529
  GI50: > 100 µM (inactive)

## Nc1ncnc2c1ncn2C1CC(O)C(CO)O1 (stereo not given)
DMS-114
  GI50: > 100 µM (inactive)
DMS-273
  GI50: > 100 µM (inactive)
SNB-78
  GI50: > 100 µM (inactive)
M19-MEL
  GI50: > 100 µM (inactive)
DLD-1
  GI50: > 100 µM (inactive)
LXFL 529
  GI50: > 100 µM (inactive)

## COC(=O)C1C(=O)NC2(C)CC1c1ccccc1O2 (stereo not given)
DMS-114
  GI50: > 100 µM (inactive)
XF498
  GI50: > 100 µM (inactive)
DMS-273
  GI50: > 100 µM (inactive)
SNB-78
  GI50: > 100 µM (inactive)
M19-MEL
  GI50: > 100 µM (inactive)
DLD-1
  GI50: > 100 µM (inactive)
LXFL 529
  GI50: > 100 µM (inactive)

## COc1cc([C@H]2c3[nH]c4ccccc4c3C[C@H]3COC(=O)N32)cc(OC)c1O
HOP-18
  GI50: 64.3 µM (inactive)
XF498
  GI50: 0.0671 µM (active)
DMS-273
  GI50: 0.0163 µM (active)
SNB-78
  GI50: 2.3 µM (inactive)
DLD-1
  GI50: 0.132 µM (active)

— ChEMBL document CHEMBL1201862, “PubChem BioAssay data set” (2004)
